Series [1] addresses cGMP-specific 3',5'-cyclic phosphodiesterase (Homo sapiens, UniProt O76074).
Description: Inhibition of PDE5 (unknown origin)
Series [2] in a line: Dissociation constant, pKa of compound. The series is classed as physicochemical.
The target in series [3] is Plasma kallikrein (Homo sapiens, UniProt P03952). Briefly: Inhibition of plasma kallikrein (unknown origin).
A short description of series [4]: Inhibition of GABA receptor BZ domain (unknown origin). Details: species or system Homo sapiens.

As usually defined, the IC50 is the concentration needed to halve the response being measured. The pKa is the pH at which an ionisable group is half protonated. Lower therefore signals a group that gives up its proton readily.

Plasma kallikrein, sequence (P03952 20-390 limits assumed): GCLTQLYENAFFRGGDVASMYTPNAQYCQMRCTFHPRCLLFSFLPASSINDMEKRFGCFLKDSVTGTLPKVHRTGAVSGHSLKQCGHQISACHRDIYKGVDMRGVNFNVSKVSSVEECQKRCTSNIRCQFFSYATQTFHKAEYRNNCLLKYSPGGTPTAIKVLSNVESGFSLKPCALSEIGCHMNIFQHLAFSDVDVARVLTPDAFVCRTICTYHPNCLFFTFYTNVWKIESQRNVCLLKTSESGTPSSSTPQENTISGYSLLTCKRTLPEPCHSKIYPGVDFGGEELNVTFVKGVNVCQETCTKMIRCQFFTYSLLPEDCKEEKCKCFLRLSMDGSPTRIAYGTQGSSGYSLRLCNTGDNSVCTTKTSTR
Plasma kallikrein, sequence (P03952 391-638 limits assumed): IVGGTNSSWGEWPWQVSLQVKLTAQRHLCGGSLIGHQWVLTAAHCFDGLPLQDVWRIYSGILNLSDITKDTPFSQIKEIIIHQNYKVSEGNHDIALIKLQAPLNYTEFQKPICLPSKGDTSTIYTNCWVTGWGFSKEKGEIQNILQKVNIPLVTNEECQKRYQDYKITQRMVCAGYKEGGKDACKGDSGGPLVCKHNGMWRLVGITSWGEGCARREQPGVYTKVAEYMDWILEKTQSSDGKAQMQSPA

As for `CCCOc1ccc(S(=O)(=O)NCCC2CCCN2C)cc1-c1nc2c(CCC)nn(C)c2c(=O)[nH]1` (stereo not given), in series [1], the IC50 stood at 8.25 nM.

`CCCCc1nc(-c2ccccc2Cl)c(C(=O)O)n1Cc1ccc(-c2ccccc2-c2nn[nH]n2)cc1`: the pKa in series [2] was found to be 2.5.

`CCCCc1nn(-c2ccccc2Cl)c(C(=O)O)c1Cc1ccc(-c2ccccc2-c2nn[nH]n2)cc1` showed a pKa in series [2] of 7.1.

For `N#Cc1cccc([C@@H](NCC2CC2)c2ccc(F)c(NC(=O)c3cc(C(F)(F)F)nn3-c3cccc(CN)c3)c2)c1` [BEROTRALSTAT], the IC50 in series [3] was found to be 1 nM.

`CCN(C(C)=O)c1cccc(-c2ccnc3c(C#N)cnn23)c1` [ZALEPLON] yielded an IC50 in series [4] of 167 nM.

Source of the values: ChEMBL document CHEMBL5150054, “Pyrazole-containing pharmaceuticals: target, pharmacological activity, and their SAR studies” (RSC Med Chem, 2022).
